Data set [1] can be described thus: reboxetine elimination half-life and time to steady state. Conditions: about four elimination half lives after initiation of continuous intermittent dosing. The format is in vivo. As to the method:
Generally, continuous dosing for a period equal to about four elimination half lives is required to obtain steady-state conditions. Accordingly, steady-state conditions are approached at approximately 52 hours following initiation of a continuous intermittent dosing regimen. Mean steady-state plasma reboxetine concentrations following dosing every 24 hours with 4 mg doses of reboxetine methanesulfonate in two different sustained release dosage forms, having T90 values of about 9 hours and about 18 hours, respectively, and following dosing every 12 hours with 2 mg doses of reboxetine methanesulfonate (total daily dose=4 mg) in an immediate release dosage form for a period of four days (96 hours) were simulated.

The conditions of data set [2]: in vivo; cited from earlier work.

Turning to `CCOc1ccccc1OC(c1ccccc1)C1CNCCO1` (stereo not drawn) [Reboxetine, 2-[α(2-ethoxyphenoxy)benzyl]morpholine], the “time at which steady-state conditions are approached” value in data set [1] was “approximately 52 hours”. Further, the “elimination half-life (t1/2)” value in data set [2] is recorded as “about 13 hours”.

The values are drawn from patent US6630165B2, “Methods for providing effective reboxetine therapy with once-a-day dosing” (priority 1999, dated 2003).
